In PubChem BioAssay AID248 (DTP/NCI, 2004):
“And” between values parts separate entries of the source, which are not always exact repeats. Equal entries are not always repeated. Toxic doses and inconclusive results are not listed. Rule as the data show it: active = T/C of 150% or more; inactive = T/C below 125%.

System: L1210 leukemia ip in BDF1 mice, survival T/C
Test: NCI In Vivo Anticancer Drug Screen. Data for tumor model L1210 Leukemia (intraperitoneal) in B6D2F1 (BDF1) mice
Conditions: endpoint: mean survival time, higher = longer survival
Method in brief: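 Tumor was transplanted into mice, which were then dosed with test compound or vehicle alone. Survival was recorded for each group, and the treated figure was expressed relative to the control figure.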

[1] = dose: 100.0 mg/kg/injection, schedule: Q01DX001 (ip), vehicle: saline
[2] = dose: 100.0 mg/kg/injection, schedule: Q04DX003 (ip), vehicle: saline
[3] = dose: 50.0 mg/kg/injection, schedule: Q01DX009 (ip), vehicle: saline with Tween-80
[4] = dose: 100.0 mg/kg/injection, schedule: Q01DX009 (ip), vehicle: saline with Tween-80
[5] = dose: 200.0 mg/kg/injection, schedule: Q01DX009 (ip), vehicle: saline with Tween-80
[6] = dose: 100.0 mg/kg/injection, schedule: Q04DX003 (ip), vehicle: Klucel (hydroxypropylcellulose) (HPC)
[7] = dose: 200.0 mg/kg/injection, schedule: Q04DX003 (ip), vehicle: Klucel (hydroxypropylcellulose) (HPC)
[8] = dose: 400.0 mg/kg/injection, schedule: Q04DX003 (ip), vehicle: Klucel (hydroxypropylcellulose) (HPC)
[9] = dose: 25.0 mg/kg/injection, schedule: Q04DX003 (ip), vehicle: saline
[10] = dose: 50.0 mg/kg/injection, schedule: Q04DX003 (ip), vehicle: saline
[11] = dose: 6.25 mg/kg/injection, schedule: Q01DX009 (ip), vehicle: saline
[12] = dose: 25.0 mg/kg/injection, schedule: Q01DX009 (ip), vehicle: saline
[13] = dose: 100.0 mg/kg/injection, schedule: Q04DX003 (ip), vehicle: saline with Tween-80

Measured: T/C

CNS(C)(=O)=O
inactive: [1] 108 % of control | [2] 101 % of control | dose: 200.0 mg/kg/injection, schedule: Q01DX001 (ip), vehicle: saline 106 % of control | dose: 200.0 mg/kg/injection, schedule: Q04DX003 (ip), vehicle: saline 104 % of control | dose: 400.0 mg/kg/injection, schedule: Q01DX001 (ip), vehicle: saline 95 % of control | dose: 400.0 mg/kg/injection, schedule: Q04DX003 (ip), vehicle: saline 106 % of control

O=Cc1cscc1-c1cscc1C=O
inactive: [3] 91 % of control | [4] 95 % of control | [5] 98 % of control

CN(C(=O)C1CCCCC1)C1CCCCC1O (stereo not drawn)
inactive: [3] 101 % of control | [4] 93 % of control | [5] 90 % of control

O=C(Nc1ccc(Cl)c(Cl)c1)Nc1ccccc1O
inactive: [6] 100 % of control | [7] 102 % of control | [8] 100 % of control

CC(C#N)C(N)=O (stereo not drawn)
inactive: dose: 12.5 mg/kg/injection, schedule: Q04DX003 (ip), vehicle: saline 97 % of control | [9] 94 % of control | [10] 105 % of control

O=C(Sc1ccccc1)C1OC1(c1ccccc1)c1ccccc1 (stereo not drawn)
inactive: [6] 97 % of control | [7] 88 % of control

N#CC(Nc1ccccc1)c1ccc(Cl)cc1 (stereo not drawn)
inactive: [3] 101 % of control | [4] 97 % of control | [5] 94 % of control

CC[N+]1(CC)CCC(OC(=O)C(O)(c2ccccc2)c2ccccc2)C1 (stereo not drawn)
inactive: dose: 5.0 mg/kg/injection, schedule: Q01DX001 (ip), vehicle: saline 97 % of control | dose: 10.0 mg/kg/injection, schedule: Q01DX001 (ip), vehicle: saline 92 % of control | dose: 20.0 mg/kg/injection, schedule: Q01DX001 (ip), vehicle: saline 97 % of control | dose: 40.0 mg/kg/injection, schedule: Q01DX001 (ip), vehicle: saline 97 % of control | dose: 80.0 mg/kg/injection, schedule: Q01DX001 (ip), vehicle: saline 103 % of control

C=C(C)C(=O)[O][Sn]([CH2]CCC)([CH2]CCC)[CH2]CCC
inactive: dose: 0.39 mg/kg/injection, schedule: Q01DX009 (ip), vehicle: saline 98 % of control | dose: 0.78 mg/kg/injection, schedule: Q01DX009 (ip), vehicle: saline 105 % of control | dose: 1.56 mg/kg/injection, schedule: Q01DX009 (ip), vehicle: saline 94 % of control | [11] 92 % of control

COC(=O)c1cn[nH]c1N1CC[N+](CCCl)=N1
inactive: [12] 97 % of control | [9] 102 % of control | dose: 50.0 mg/kg/injection, schedule: Q01DX009 (ip), vehicle: saline 106 % of control | [10] 104 % of control | [1] 100 % of control | [2] 104 % of control

CC12CCC(C1)C(C)(C)C2[N+]#N (stereo not drawn)
inactive: dose: 75.0 mg/kg/injection, schedule: Q01DX001 (ip), vehicle: saline 105 % of control

CC(CCl)(CCl)CCl
inactive: dose: 50.0 mg/kg/injection, schedule: Q01DX009 (ip), vehicle: saline sonified 96 % of control | dose: 100.0 mg/kg/injection, schedule: Q01DX001 (ip), vehicle: saline sonified 99 % of control | dose: 100.0 mg/kg/injection, schedule: Q01DX009 (ip), vehicle: saline sonified 106 % of control | dose: 200.0 mg/kg/injection, schedule: Q01DX001 (ip), vehicle: saline sonified 96 % of control | dose: 200.0 mg/kg/injection, schedule: Q01DX009 (ip), vehicle: saline sonified 94 % of control

Clc1cccc(Nc2nc(Cl)nc(C(Cl)(Cl)Cl)c2Cl)c1
inactive: [4] 88 % of control | [5] 94 % of control | dose: 400.0 mg/kg/injection, schedule: Q01DX009 (ip), vehicle: saline with Tween-80 88 % of control

O=c1ccn(CCCc2ccccc2)c(=O)[nH]1
inactive: dose: 100.0 mg/kg/injection, schedule: Q01DX009 (ip), vehicle: Klucel (hydroxypropylcellulose) (HPC) 94 % of control | dose: 200.0 mg/kg/injection, schedule: Q01DX009 (ip), vehicle: Klucel (hydroxypropylcellulose) (HPC) 109 % of control | dose: 400.0 mg/kg/injection, schedule: Q01DX009 (ip), vehicle: Klucel (hydroxypropylcellulose) (HPC) 94 % of control

CC(C)CCCC(C)CCC1=C(O)c2ccccc2C(=O)C1=O (stereo not drawn)
inactive: dose: 100.0 mg/kg/injection, schedule: Q01DX001 (ip), vehicle: Klucel (hydroxypropylcellulose) (HPC) 102 % of control | [6] 101 % of control | dose: 200.0 mg/kg/injection, schedule: Q01DX001 (ip), vehicle: Klucel (hydroxypropylcellulose) (HPC) 98 % of control | [7] 97 % of control | dose: 400.0 mg/kg/injection, schedule: Q01DX001 (ip), vehicle: Klucel (hydroxypropylcellulose) (HPC) 100 % of control | [8] 97 % of control

CCc1ccc(NC(=S)NC(=O)c2ccccc2OC)cc1
inactive: dose: 100.0 mg/kg/injection, schedule: Q01DX009 (ip), vehicle: other 98 % of control | dose: 200.0 mg/kg/injection, schedule: Q01DX009 (ip), vehicle: other 103 % of control | dose: 400.0 mg/kg/injection, schedule: Q01DX009 (ip), vehicle: other 93 % of control

BrCc1cc2ccccc2cc1CBr
inactive: dose: 12.5 mg/kg/injection, schedule: Q01DX009 (ip), vehicle: Klucel (hydroxypropylcellulose) (HPC) 98 % of control | dose: 25.0 mg/kg/injection, schedule: Q01DX009 (ip), vehicle: Klucel (hydroxypropylcellulose) (HPC) 96 % of control | dose: 25.0 mg/kg/injection, schedule: Q04DX003 (ip), vehicle: saline with Tween-80 100 % of control | dose: 50.0 mg/kg/injection, schedule: Q01DX009 (ip), vehicle: Klucel (hydroxypropylcellulose) (HPC) 93 % of control and 107 % of control | dose: 50.0 mg/kg/injection, schedule: Q04DX003 (ip), vehicle: saline with Tween-80 104 % of control | [13] 96 % of control

O=c1[nH]cnc2c1ncn2CCCCCCl
inactive: [6] 102 % of control

CN1C2CCC1CC(OC(c1ccccc1)c1ccccc1)C2 (stereo not drawn)
inactive: dose: 3.12 mg/kg/injection, schedule: Q01DX009 (ip), vehicle: saline 95 % of control | dose: 5.0 mg/kg/injection, schedule: Q01DX009 (ip), vehicle: saline 92 % of control | [11] 97 % of control | dose: 10.0 mg/kg/injection, schedule: Q01DX009 (ip), vehicle: saline 103 % of control | dose: 12.5 mg/kg/injection, schedule: Q01DX009 (ip), vehicle: saline 103 % of control | dose: 17.0 mg/kg/injection, schedule: Q01DX009 (ip), vehicle: saline 95 % of control | dose: 20.0 mg/kg/injection, schedule: Q01DX009 (ip), vehicle: saline 90 % of control | [12] 109 % of control | dose: 55.0 mg/kg/injection, schedule: Q01DX001 (ip), vehicle: saline 98 % of control

COC1OCC(N=[N+]=[N-])C(OC)C1O (stereo not drawn)
inactive: [13] 100 % of control | dose: 200.0 mg/kg/injection, schedule: Q04DX003 (ip), vehicle: saline with Tween-80 100 % of control | dose: 400.0 mg/kg/injection, schedule: Q04DX003 (ip), vehicle: saline with Tween-80 98 % of control
